Experimental data published in paper PMC3177827 (PLoS ONE, 2011).
Where a SMILES comes first, the peptide text is derived from it. The star is where a group is joined. pNA = O=[N+]([O-])c1ccc(N*)cc1; Cbz = O=C(OCc1ccccc1)*

What was measured:
[1] = tested on: chymotrypsin; experiment: Degradation of 33-mer and 26-mer gliadin peptides by chymotrypsin; format: in vitro ADME; conditions: peptide 250 µg/ml; chymotrypsin 1 µg/ml in 50 mM ammonium bicarbonate, pH 8.0; sampled at t = 0 and 24 h; RP-HPLC
Method: (§1) Synthetic highly immunogenic peptides derived from α2-gliadin ([…]; 33-mer) or γ-gliadin ([…]; 26-mer) were synthesized at a purity of 95% (21st Century Biochemicals, Marlboro, MA), dissolved in deionized water to 10 mg/ml. The peptides (final concentration 250 µg/ml) were incubated with trypsin or chymotrypsin (1 µg/ml in 50 mM ammonium bicarbonate, pH 8.0), or pepsin (1 µg/ml in 0.1 M HCl, pH 1.0) or strain WSA-8 (R. aeria) in saliva ion buffer (OD620 1.2, pH 7.0). Degradation of the 33-mer and 26-mer over time was monitored in 100 µl aliquots by RP-HPLC as reported previously.
(§2) The 100 µl sample aliquots were mixed with 900 µl buffer A containing 0.1% (v/v) trifluoroacetic acid (TFA), filtered and analyzed by RP-HPLC using a HPLC Model 715 (Gilson, Middleton, WI) and a C-18 column (TSK-GEL 5 µm, ODS-120T, 4.6×250 mm, TOSOHaas, Montgomeryville, PA). Peptides were eluted using a linear gradient from 0% to 55% buffer B containing 80% (v/v) acetonitrile and 0.1% (v/v) TFA over a 75 min time interval at a flow rate of 1.0 ml/min. The eluate was monitored at 219 and 230 nm and eluting fractions were collected using peak width and peak sensitivity settings of 1.2 and 5, respectively (Unipoint version 3.3, Gilson). […]
(§3) Figure 4 Degradation of the 33-mer by mammalian enzymes and by enzymes associated with R. aeria. […] Degradation of the 33-mer in incubation aliquots was monitored by RP-HPLC. […]

[2] = tested on: pepsin; experiment: Degradation of 33-mer and 26-mer gliadin peptides by pepsin; format: in vitro ADME; conditions: peptide 250 µg/ml; pepsin 1 µg/ml in 0.1 M HCl, pH 1.0; sampled at t = 0 and 24 h; RP-HPLC
Method: as §1, §2, §3

[3] = tested on: WSA-8 (R. aeria); experiment: Degradation and fragment analysis of 33-mer and 26-mer in a suspension of WSA-8; format: in vitro ADME, Rothia aeria; conditions: peptide 250 µg/ml; WSA-8 (R. aeria) in saliva ion buffer, OD620 1.2, pH 7.0; sampled at 0, 30, 60, 120 min; RP-HPLC
Method: as §1
as §2, with “Peptides were eluted using a linear gradient from 0% to 55% buffer B containing 80% (v/v) acetonitrile and 0.1% (v/v) TFA over a 75 min time interval at a flow rate of 1.0 ml/min.” left out
All dried peaks were dissolved in 25 µl of a solution containing 5% acetonitrile and 0.1% formic acid. […] The raw MS/MS data of the peptide ions in each of the analyzed samples were searched against an in-house generated database containing the sequences of the 33-mer and the 26-mer using SEQUEST software (Bioworks Browser 3.3.1, Thermo-Finnigan). […]

[4] = tested on: trypsin; experiment: Degradation of 33-mer and 26-mer gliadin peptides by trypsin; format: in vitro ADME; conditions: peptide 250 µg/ml; trypsin 1 µg/ml in 50 mM ammonium bicarbonate, pH 8.0; sampled at t = 0 and 24 h; RP-HPLC
Method: as §1, §2, §3

[5] = bacterial suspension in saliva ion buffer (OD620 1.2); conditions: up to 24 h
[6] = WSA-8 cells (OD620 1.2) in 20 mM Tris solution, pH 2.0; conditions: Rothia aeria (strain WSA-8), up to 72 h
[7] = tested on: WSA-8 (R. aeria); experiment: pH activity analysis: Z-YPQ-pNA hydrolysis by WSA-8 cells; format: biochemical, Rothia aeria; conditions: Z-YPQ-pNA 200 µM, WSA-8 cells OD620 1.2, 20 mM Tris, 405 nm, activity not reactivated at neutral pH
Method: Figure 6 Gliadin zymography (6%) of Rothia strains and pH activity analysis. In the zymogram gels 150 µl cells (OD620 5.0) were applied per lane. Lane 1, strain WSA-2B (R. mucilaginosa); lanes 2: strain WSA-8 (R. aeria), lane 3: strain WSA-26 (R. mucilaginosa); lane 4: strain ATCC 25296 (R. mucilaginosa). A, gel developed at pH 7.0; B, gel developed at pH 3.0. C, Z-YPQ-pNA (200 µM) hydrolysis by WSA-8 cells (OD620 1.2) measured in 20 mM Tris solutions ranging in pH from 2.0 to 10.0. Measurements at 405 nm were carried out hourly for the first 6 hours and after 24 h and 72 h.
To determine protease activities under conditions that are representative of the stomach, the zymogram gel with the four Rothia strains was also developed at pH 3.0 (Figure 6B). […] To further investigate the pH range over which strain R. aeria was active, Z-YPQ-pNA substrate hydrolysis was measured in solutions ranging in pH from 2.0 to 10.0. […] Substrate hydrolysis rates decreased in parallel with decreasing pH values from pH 7.0 to pH 4.0. At pH 3.0 substrate cleavage was noted only after 72 h incubation. The slow but noticeable enzyme activity of R. aeria at this pH value is consistent with the gliadin zymogram results presented in Figure 6B.

## CC(C)C[C@H](NC(=O)[C@@H](N)Cc1ccccc1)C(=O)N[C@@H](CCC(N)=O)C(=O)N1CCC[C@H]1C(=O)N[C@@H](CCC(N)=O)C(=O)N[C@@H](CCC(N)=O)C(=O)N1CCC[C@H]1C(=O)N[C@@H](Cc1ccccc1)C(=O)N1CCC[C@H]1C(=O)N[C@@H](CCC(N)=O)C(=O)N[C@@H](CCC(N)=O)C(=O)N1CCC[C@H]1C(=O)N[C@@H](CCC(N)=O)C(=O)N[C@@H](CCC(N)=O)C(=O)N1CCC[C@H]1C(=O)N[C@@H](Cc1ccc(O)cc1)C(=O)N1CCC[C@H]1C(=O)N[C@@H](CCC(N)=O)C(=O)N[C@@H](CCC(N)=O)C(=O)N1CCC[C@H]1C(=O)N[C@@H](CCC(N)=O)C(=O)N[C@@H](CCC(N)=O)C(=O)N1CCC[C@H]1C(=O)N[C@@H](Cc1ccccc1)C(=O)N1CCC[C@H]1C(=O)N[C@@H](CCC(N)=O)C(=O)O [26-mer] (H-FLQPQQPFPQQPQQPYPQQPQQPFPQ-OH)
[1]
  degradation by chymotrypsin: resistant to degradation
[2]
  degradation by pepsin: resistant to degradation
[3]
  degradation in a cell suspension of WSA-8 over the 2 h time interval: sensitive to proteolytic degradation
[4]
  degradation by trypsin: resistant to degradation

## CC(C)C[C@H](NC(=O)[C@H](CCC(N)=O)NC(=O)[C@@H](N)CC(C)C)C(=O)N[C@@H](CCC(N)=O)C(=O)N1CCC[C@H]1C(=O)N[C@@H](Cc1ccccc1)C(=O)N1CCC[C@H]1C(=O)N[C@@H](CCC(N)=O)C(=O)N1CCC[C@H]1C(=O)N[C@@H](CCC(N)=O)C(=O)N[C@@H](CC(C)C)C(=O)N1CCC[C@H]1C(=O)N[C@@H](Cc1ccc(O)cc1)C(=O)N1CCC[C@H]1C(=O)N[C@@H](CCC(N)=O)C(=O)N1CCC[C@H]1C(=O)N[C@@H](CCC(N)=O)C(=O)N[C@@H](CC(C)C)C(=O)N1CCC[C@H]1C(=O)N[C@@H](Cc1ccc(O)cc1)C(=O)N1CCC[C@H]1C(=O)N[C@@H](CCC(N)=O)C(=O)N1CCC[C@H]1C(=O)N[C@@H](CCC(N)=O)C(=O)N[C@@H](CC(C)C)C(=O)N1CCC[C@H]1C(=O)N[C@@H](Cc1ccc(O)cc1)C(=O)N1CCC[C@H]1C(=O)N[C@@H](CCC(N)=O)C(=O)N1CCC[C@H]1C(=O)N[C@@H](CCC(N)=O)C(=O)N1CCC[C@H]1C(=O)N[C@@H](Cc1ccccc1)C(=O)O [33-mer] (H-LQLQPFPQPQLPYPQPQLPYPQPQLPYPQPQPF-OH)
[1]
  degradation by chymotrypsin: resistant to degradation
[2]
  degradation by pepsin: resistant to degradation
[4]
  degradation by trypsin: resistant to degradation

## Cbz-Tyr-Pro-Gln-pNA
[5]; Bifidobacterium dentium HOT-588 (strain PAN-5)
  not cleaved: − after 24 h
[5]; Bifidobacterium dentium HOT-588 (strain PAN-8)
  not cleaved: − after 24 h
[5]; Bifidobacterium dentium HOT-588 (strain PAN-18)
  not cleaved: − after 24 h
[5]; Bifidobacterium dentium HOT-588 (strain PAN-19)
  not cleaved: − after 24 h
[5]; Bifidobacterium dentium HOT-588 (strain PAN-23)
  not cleaved: − after 24 h
[5]; Bifidobacterium longum HOT-B54 (strain WSAN-14)
  not cleaved: − after 24 h
[5]; Bifidobacterium longum HOT-B54 (strain WSAN-16)
  not cleaved: − after 24 h
[5]; Bifidobacterium longum HOT-B54 (strain WSAN-24)
  not cleaved: − after 24 h
[5]; Staphylococcus epidermidis HOT-601 (strain WSA-10)
  not cleaved: − (inactive) after 24 h
[5]; Streptococcus pneumoniae HOT-734 (strain PAN-0)
  not cleaved: − after 24 h
[5]; Veilonella atypica HOT-524 (strain WSAN-25)
  not cleaved: − after 24 h
[6]
  not cleaved: no Z-YPQ-pNA hydrolysis could be observed

## benzyloxycarbonyl-YPQ-paranitroanilide [Z-YPQ-pNA]
[7]
  substrate hydrolysis at pH 2.0: no Z-YPQ-pNA hydrolysis could be observed
